In paper PMC12212259, “Evaluation of AlphaFold modeling for elucidation of nanobody–peptide epitope interactions” (The Journal of Biological Chemistry, 2025):
pKd: −log10 of the molar value. Peptide text beside a SMILES is read from it.

What was measured:
Nb6E [1] = assay: SPR analysis of 6E variant peptides binding to immobilized Nb6E-biotin
Experimental: (§1) SPR biosensor analysis was conducted on a Biacore T200 instrument (Cytiva) using a Series S Sensor Chip SA (streptavidin; Cytiva, #29104992) to determine Nb–tag binding affinity. All binding analyses were done in degassed SPR running buffer (1X PBS at pH 7.4 plus 0.05% P20). Biotinylated Nbs (Nb6E or Nb127), produced by sortagging reaction, was captured on SA chip where streptavidin is covalently coupled to dextran matrix. Biotinylated Nb (1 μM) was immobilized on flow cell via biotin–streptavidin interaction to reach a target response value of approximately 2000 response units. A separate flow cell was capped with only SPR running buffer to use as a surface control for nonspecific binding.
(§2) Analyte samples (127-tag peptide or mutant-6E peptides) were prepared as serial dilutions in SPR running buffer. Analyte was flowed over the chip at 50 μl/min with a contact time of 60 s and a dissociation time of 120 s. A duplicate injection of one concentration and a buffer injection (blank) were used for assessing chip surface performance and double referencing, respectively. […] Kinetic constants and KD values (M) were calculated from local fittings using 1:1 kinetics binding model for peptide (analyte) binding to Nb–biotin on the BIAevaluation software (Cytiva).

[2] = test system: Nb6E (A2AR-Nb6E-ALFA) on HEK293 cells; assay: Flow cytometry competition binding against FAM-6E-C14 on HEK293 cells; parameters: species or system human; settings: peptides 10-0.01 μM vs 10 nM FAM-6E-C14, 30 m, median AF647 fluorescence
Experimental: Human embryonic kidney 293 cells stably expressing a cell surface protein fused with Nb6E (A2AR-Nb6E-ALFA, described previously ([25])) were cultured in Dulbecco's modified Eagle's media containing 10% fetal bovine serum (Thermo; #A5256801) and 1X penicillin–streptomycin (Thermo; #15140-122). Binding assays were performed as described previously ([25]). Briefly, cells were suspended in 2% bovine serum albumin (BSA) in 1X PBS (w/v) (BSA-PBS) with variable concentrations of unlabeled variant 6E peptides (10–0.01 μM) and 10 nM fluorescein-labeled 6E peptide (FAM-6E-C14) for 30 m followed by 2x washing with BSA-PBS, and subsequent staining with antifluorescein Ab conjugated with AlexaFluor647 (1.5:1000 dilution in BSA-PBS; Jackson ImmunoResearch; #200-602-037). Cells were incubated again for 30 m, pelleted, washed, and analyzed by flow cytometry on a CytoFlex flow cytometer (Beckman Coulter). Cell labeling intensity was monitored in the FL4-APC channel. Live cells were identified and gated based on forward scatter–side scatter profile. […] Median fluorescence intensity for cell counts observed in the APC channel for each sample was calculated from histograms. Median fluorescence intensity values obtained from technical replicates of the same sample were averaged and plotted against the corresponding concentration of the variant 6E peptide.

Nb6E [3] = settings: cited from earlier work
Nb127 = assay: SPR analysis of 127-tag binding to immobilized Nb127-biotin; settings: Biacore T200, Nb127-biotin on streptavidin chip, 127 tag 400-6.25 nM, PBS pH 7.4 + 0.05% P20, 1:1 kinetics binding model
Experimental: as §1, §2

Row | Structure (SMILES) | rank of binding affinities (SPR) (Nb6E [1]) | rank of binding affinities (competition binding assay) [2] | experimental binding to Nb6E (earlier work) (Nb6E [3]) | pKd (Nb127)
1 | CC[C@H](C)[C@H](NC(=O)[C@H](CCC(N)=O)NC(=O)[C@H](CCCNC(=N)N)NC(=O)[C@H](C)NC(=O)[C@H](CC(C)C)NC(=O)[C@H](CCC(=O)O)NC(=O)[C@H](CCCCN)NC(=O)[C@H](C)NC(=O)[C@H](CCC(=O)O)NC(=O)[C@H](CCC(N)=O)NC(=O)[C@H](CC(=O)O)NC(=O)[C@H](C)NC(=O)[C@@H](N)CCC(N)=O)C(=O)N[C@@H](CO)C(N)=O [6E-L9 (WT)] (H-QADQEAKELARQIS-NH2) | 6E-M9 > 6E-WT > 6E-F9 | 6E-M9 > 6E-WT > 6E-F9 | substantially higher affinity than the 6E-A9 variant | –
2 | CC[C@H](C)[C@H](NC(=O)[C@H](CCC(N)=O)NC(=O)[C@H](CCCNC(=N)N)NC(=O)[C@H](C)NC(=O)[C@H](CCSC)NC(=O)[C@H](CCC(=O)O)NC(=O)[C@H](CCCCN)NC(=O)[C@H](C)NC(=O)[C@H](CCC(=O)O)NC(=O)[C@H](CCC(N)=O)NC(=O)[C@H](CC(=O)O)NC(=O)[C@H](C)NC(=O)[C@H](CCC(N)=O)NC(=O)CNC(=O)CNC(=O)CN)C(=O)N[C@@H](CO)C(N)=O [6E-M9] (H-GGGQADQEAKEMARQIS-NH2) | 6E-M9 > 6E-WT > 6E-F9 | 6E-M9 > 6E-WT > 6E-F9 | – | –
3 | NCCCC[C@H](NC(=O)[C@H](Cc1c[nH]c2ccccc12)NC(=O)[C@H](Cc1ccccc1)NC(=O)[C@H](CC(=O)O)NC(=O)[C@H](CCC(=O)O)NC(=O)[C@H](Cc1ccccc1)NC(=O)[C@@H](N)CO)C(=O)NCC(=O)N[C@@H](CCC(=O)O)C(=O)N[C@@H](CC(=O)O)C(N)=O [127-tag] (H-SFEDFWKGED-NH2) | – | – | – | 7.85
